In US20020172935A1, “Methods of screening for compounds that modulate blood vessel formation from circulating endothelial cell precursors” (priority 2000, published 2002):

Tested on: murine allantois
Assay: Allantois explant culture: de novo vascular development, immunolabeling and confocal analysis
Format: cell-based, mouse
Procedure: Allantoides of 7.5dpc embryos were excised, washed in EPBS (4° C.) and then pipetted into Nunc 4 chambered culture slides (Fisher Scientific Co., Suwanee, Ga.) containing 0.4 ml of DMEM, 10% Fetal Bovine Serum, and 1% Penicillin Streptomycin. Explants were cultured at 37° C. in a 5% CO2 incubator for 12-20 hours and then fixed and permeabilized as described above. The explants were blocked in 3% BSA/PBSA 12-18 hrs, exposed to PECAM antibodies (1.5 hours, 26° C.), washed 3×40 minutes in PBSA, incubated in appropriate secondary antibodies (1.5 hours, 26° C.), washed in PBSA 3×30 minutes, and mounted as described above.
Embryos were analyzed using a Bio-Rad MRC 1024 Laser Scanning Confocal Microscope (Bio-Rad Microscopy Division, Cambridge, Mass.). Optical sectioning along the dorsoventral axis (Z-axis) was performed and the images collapsed into a single focal plane using manufacturer's software. Differential Interference Contrast (DIC) images were generated using a research grade Leitz™ photomicroscope equipped with a Photometrics™ (Tucson, Ariz.) Quantix CCD camera. Images were processed using NIH Image 1.62 software (NIH, Bethesda, Md.) and Adobe Photoshop 5.0 (Adobe Systems, Inc., San Jose, Calif.). […]

VEGF
vascular pattern (PECAM immunolabeling) (7.0 dpc allantois cultured 24 hours with VEGF 2 μg/ml (FIG. 3c)): overall sinusoidal vascular pattern | vascular phenotype (allantois cultures, recombinant VEGF 2 μg/ml, 24 hr): hyperfused vascular phenotype
